Source: PubChem BioAssay (NCI)
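Compound exposure: 48 hours, 5 concentrations, 96-well plates. TGI marks complete inhibition of growth.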

What was measured:
Assay in all cases: DTP human tumour cell line panel, 48 h
LOX IMVI melanoma = tested on: LOX IMVI melanoma
UO-31 renal = tested on: UO-31 renal
HS 578T breast = tested on: HS 578T breast
HCT-15 colon = tested on: HCT-15 colon
U251 CNS = tested on: U251 CNS
A549 NSCLC = tested on: A549 NSCLC
NCI-H522 lung = tested on: NCI-H522 lung
MDA-MB-231 breast = tested on: MDA-MB-231 breast
ACHN renal = tested on: ACHN renal
A498 renal = tested on: A498 renal
DU-145 prostate = tested on: DU-145 prostate
SR leukemia = tested on: SR leukemia
HCT-116 colon = tested on: HCT-116 colon
NCI-H460 lung = tested on: NCI-H460 lung
MOLT-4 leukemia = tested on: MOLT-4 leukemia
NCI-H23 lung = tested on: NCI-H23 lung
SW-620 colon = tested on: SW-620 colon
RPMI-8226 leukemia = tested on: RPMI-8226 leukemia
NCI/ADR-RES ovarian = tested on: NCI/ADR-RES ovarian
SF-539 CNS = tested on: SF-539 CNS
CAKI-1 renal = tested on: CAKI-1 renal
MALME-3M melanoma = tested on: MALME-3M melanoma
SK-MEL-28 melanoma = tested on: SK-MEL-28 melanoma
SF-295 CNS = tested on: SF-295 CNS
OVCAR-5 ovarian = tested on: OVCAR-5 ovarian
HT29 colon = tested on: HT29 colon
CCRF-CEM leukemia = tested on: CCRF-CEM leukemia
OVCAR-3 ovarian = tested on: OVCAR-3 ovarian
SF-268 CNS = tested on: SF-268 CNS
EKVX NSCLC = tested on: EKVX NSCLC
COLO 205 colon = tested on: COLO 205 colon
UACC-62 melanoma = tested on: UACC-62 melanoma
BT-549 breast = tested on: BT-549 breast
HCC-2998 colon = tested on: HCC-2998 colon
SN12C renal = tested on: SN12C renal
SNB-19 CNS = tested on: SNB-19 CNS
MCF7 breast = tested on: MCF7 breast
SNB-75 CNS = tested on: SNB-75 CNS
PC-3 prostate = tested on: PC-3 prostate
T-47D breast = tested on: T-47D breast
SK-OV-3 ovarian = tested on: SK-OV-3 ovarian
TK-10 renal = tested on: TK-10 renal
M14 melanoma = tested on: M14 melanoma
HL-60(TB) leukemia = tested on: HL-60(TB) leukemia
SK-MEL-5 melanoma = tested on: SK-MEL-5 melanoma
IGROV1 ovarian = tested on: IGROV1 ovarian
786-0 renal = tested on: 786-0 renal
MDA-MB-435 = tested on: MDA-MB-435
HOP-92 NSCLC = tested on: HOP-92 NSCLC
UACC-257 melanoma = tested on: UACC-257 melanoma
OVCAR-8 ovarian = tested on: OVCAR-8 ovarian
HOP-62 NSCLC = tested on: HOP-62 NSCLC
OVCAR-4 ovarian = tested on: OVCAR-4 ovarian
K-562 leukemia = tested on: K-562 leukemia
SK-MEL-2 melanoma = tested on: SK-MEL-2 melanoma
NCI-H226 lung = tested on: NCI-H226 lung
KM12 colon = tested on: KM12 colon
MDA-N = tested on: MDA-N
RXF 393 renal = tested on: RXF 393 renal

Compound: CC(=NCC(=O)O)c1ccccc1
- TGI (LOX IMVI melanoma): > 100 µM
- TGI (UO-31 renal): > 100 µM
- TGI (HS 578T breast): > 100 µM
- TGI (HCT-15 colon): > 100 µM
- TGI (U251 CNS): > 100 µM
- TGI (A549 NSCLC): > 100 µM
- TGI (NCI-H522 lung): > 100 µM
- TGI (MDA-MB-231 breast): > 100 µM
- TGI (ACHN renal): > 100 µM
- TGI (A498 renal): > 100 µM
- TGI (DU-145 prostate): > 100 µM
- TGI (SR leukemia): > 100 µM
- TGI (HCT-116 colon): > 100 µM
- TGI (NCI-H460 lung): > 100 µM
- TGI (MOLT-4 leukemia): > 100 µM
- TGI (NCI-H23 lung): > 100 µM
- TGI (SW-620 colon): > 100 µM
- TGI (RPMI-8226 leukemia): > 100 µM
- TGI (NCI/ADR-RES ovarian): > 100 µM
- TGI (SF-539 CNS): > 100 µM
- TGI (CAKI-1 renal): > 100 µM
- TGI (MALME-3M melanoma): > 100 µM
- TGI (SK-MEL-28 melanoma): > 100 µM
- TGI (SF-295 CNS): > 100 µM
- TGI (OVCAR-5 ovarian): > 100 µM
- TGI (HT29 colon): > 100 µM
- TGI (CCRF-CEM leukemia): > 100 µM
- TGI (OVCAR-3 ovarian): > 100 µM
- TGI (SF-268 CNS): > 100 µM
- TGI (EKVX NSCLC): > 100 µM
- TGI (COLO 205 colon): > 100 µM
- TGI (UACC-62 melanoma): > 100 µM
- TGI (BT-549 breast): > 100 µM
- TGI (HCC-2998 colon): > 100 µM
- TGI (SN12C renal): > 100 µM
- TGI (SNB-19 CNS): > 100 µM
- TGI (MCF7 breast): > 100 µM
- TGI (SNB-75 CNS): > 100 µM
- TGI (PC-3 prostate): > 100 µM
- TGI (T-47D breast): > 100 µM
- TGI (SK-OV-3 ovarian): > 100 µM
- TGI (TK-10 renal): > 100 µM
- TGI (M14 melanoma): > 100 µM
- TGI (HL-60(TB) leukemia): > 100 µM
- TGI (SK-MEL-5 melanoma): > 100 µM
- TGI (IGROV1 ovarian): > 100 µM
- TGI (786-0 renal): > 100 µM
- TGI (MDA-MB-435): > 100 µM
- TGI (HOP-92 NSCLC): > 100 µM
- TGI (UACC-257 melanoma): > 100 µM
- TGI (OVCAR-8 ovarian): > 100 µM
- TGI (HOP-62 NSCLC): > 100 µM
- TGI (OVCAR-4 ovarian): > 100 µM
- TGI (K-562 leukemia): > 100 µM
- TGI (SK-MEL-2 melanoma): > 100 µM
- TGI (NCI-H226 lung): > 100 µM
- TGI (KM12 colon): > 100 µM
- TGI (MDA-N): > 100 µM
- TGI (RXF 393 renal): > 100 µM

Compound: [N-]=[N+]=Nc1ccc2c(c1)Sc1ccccc1N2CCCCN1CCN(Cc2ccc(C(=O)c3ccccc3)cc2)CC1
- TGI (LOX IMVI melanoma): 3.56 µM
- TGI (UO-31 renal): > 27.9 µM
- TGI (HS 578T breast): > 100 µM
- TGI (HCT-15 colon): > 100 µM
- TGI (U251 CNS): > 100 µM
- TGI (A549 NSCLC): > 100 µM
- TGI (NCI-H522 lung): 4.43 µM
- TGI (MDA-MB-231 breast): 33 µM
- TGI (ACHN renal): > 100 µM
- TGI (A498 renal): > 29 µM
- TGI (DU-145 prostate): > 100 µM
- TGI (SR leukemia): > 24.3 µM
- TGI (HCT-116 colon): > 56.8 µM
- TGI (NCI-H460 lung): > 100 µM
- TGI (MOLT-4 leukemia): > 100 µM
- TGI (NCI-H23 lung): > 80.8 µM
- TGI (SW-620 colon): > 100 µM
- TGI (RPMI-8226 leukemia): > 100 µM
- TGI (NCI/ADR-RES ovarian): > 100 µM
- TGI (SF-539 CNS): 23.1 µM
- TGI (CAKI-1 renal): > 65.4 µM
- TGI (MALME-3M melanoma): 4.28 µM
- TGI (SK-MEL-28 melanoma): 3.57 µM
- TGI (SF-295 CNS): > 100 µM
- TGI (OVCAR-5 ovarian): > 100 µM
- TGI (HT29 colon): 3.53 µM
- TGI (CCRF-CEM leukemia): > 100 µM
- TGI (OVCAR-3 ovarian): > 100 µM
- TGI (SF-268 CNS): > 100 µM
- TGI (EKVX NSCLC): > 100 µM
- TGI (COLO 205 colon): 3.55 µM
- TGI (UACC-62 melanoma): 6.1 µM
- TGI (BT-549 breast): > 66.1 µM
- TGI (HCC-2998 colon): 3.86 µM
- TGI (SN12C renal): > 100 µM
- TGI (SNB-19 CNS): > 100 µM
- TGI (MCF7 breast): > 23.3 µM
- TGI (SNB-75 CNS): > 100 µM
- TGI (PC-3 prostate): > 100 µM
- TGI (T-47D breast): 22.7 µM
- TGI (SK-OV-3 ovarian): > 100 µM
- TGI (TK-10 renal): > 96.2 µM
- TGI (M14 melanoma): 3.95 µM
- TGI (HL-60(TB) leukemia): 10.1 µM
- TGI (SK-MEL-5 melanoma): 4.09 µM
- TGI (IGROV1 ovarian): > 100 µM
- TGI (786-0 renal): > 100 µM
- TGI (MDA-MB-435): > 100 µM
- TGI (HOP-92 NSCLC): 11.7 µM
- TGI (UACC-257 melanoma): 4.41 µM
- TGI (OVCAR-8 ovarian): > 36.4 µM
- TGI (HOP-62 NSCLC): > 100 µM
- TGI (OVCAR-4 ovarian): > 100 µM
- TGI (K-562 leukemia): > 100 µM
- TGI (SK-MEL-2 melanoma): 6.86 µM
- TGI (NCI-H226 lung): > 100 µM
- TGI (KM12 colon): > 100 µM
- TGI (MDA-N): > 100 µM
- TGI (RXF 393 renal): 5.37 µM
